# According to article PMC9668830, “Identification of fungal lignocellulose-degrading biocatalysts secreted by Phanerochaete chrysosporium via activity-based protein profiling” (Communications Biology, 2022):
# Assays:
# WP_074995790 = target: T1, WP_074995790 (Streptomyces misionensis, UniProt A0A1H5HEE9); assay: pNP release at […] nm; type: biochemical; details: 200 µM substrate, phosphate citrate buffer; only specific activity reported
# T1 construct: gene SAMN04490357_7452; synthetic gene without secretion signal, pET20b, C-terminal His-tag, E. coli Rosetta DE3, Ni-IDA purified
# T1 sequence (A0A1H5HEE9 63-752): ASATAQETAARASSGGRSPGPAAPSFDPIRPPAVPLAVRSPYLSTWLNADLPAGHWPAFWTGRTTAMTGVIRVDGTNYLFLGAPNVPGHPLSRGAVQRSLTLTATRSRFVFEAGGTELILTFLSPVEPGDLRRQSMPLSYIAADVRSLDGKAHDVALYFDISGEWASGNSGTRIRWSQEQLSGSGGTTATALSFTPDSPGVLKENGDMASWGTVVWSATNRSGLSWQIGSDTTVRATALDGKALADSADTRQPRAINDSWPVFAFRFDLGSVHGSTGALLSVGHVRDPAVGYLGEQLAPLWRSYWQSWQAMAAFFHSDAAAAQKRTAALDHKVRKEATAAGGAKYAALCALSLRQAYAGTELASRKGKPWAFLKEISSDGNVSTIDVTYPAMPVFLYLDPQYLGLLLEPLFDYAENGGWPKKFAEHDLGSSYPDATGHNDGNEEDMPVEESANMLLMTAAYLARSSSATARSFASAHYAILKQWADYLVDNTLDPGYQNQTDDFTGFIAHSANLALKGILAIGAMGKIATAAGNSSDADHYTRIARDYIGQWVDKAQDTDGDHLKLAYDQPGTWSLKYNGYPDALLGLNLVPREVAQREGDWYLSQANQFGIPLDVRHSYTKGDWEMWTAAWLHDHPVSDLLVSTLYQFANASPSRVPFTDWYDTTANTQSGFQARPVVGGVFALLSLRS
# Phchr2|2915237 = system: T2, Phchr2|2915237; assay: discontinuous pNP release at […] nm; type: biochemical, Phanerodontia chrysosporium; details: phosphate citrate buffer; pH and temperature of the kinetics not restated (optimum pH 5, 60 °C)
# T2 construct: gene phchr2_2915237; synthetic gene from JGI model, secreted by Aspergillus oryzae, C-terminal 6xHis tag kept, Ni-purified
# Phchr2|126075 = system: T3, Phchr2|126075; assay: continuous pNP release at […] nm, filtered K. lactis culture supernatant; type: biochemical, Phanerodontia chrysosporium; details: 50 mM TRIS pH 8, 20 mM KCl, 40 °C
# T3 construct: gene phchr2_126075; filtered culture supernatant assayed
SMILES,Km (Phchr2|2915237) [µM],other results
O=[N+]([O-])c1ccc(O[C@@H]2O[C@H](CO)[C@H](O)[C@H](O)[C@H]2O)cc1 [pNP-Gal],–,pNP release at 410 nm (WP_074995790): we were able to detect a weak β-galactosidase activity
O=[N+]([O-])c1ccc(O[C@@H]2O[C@H](CO)[C@@H](O)[C@H](O)[C@H]2O)cc1 [pNP-Glc],1820,–
O=[N+]([O-])c1ccc(O[C@@H]2OC[C@@H](O)[C@H](O)[C@H]2O)cc1 [pNP-Xyl],6980,–
CC(=O)Oc1ccc([N+](=O)[O-])cc1 [pNP-acetate],–,Km (Phchr2|126075): 670 µM
